Reference: PubChem BioAssay AID2060892 (Molecular Pharmacology Branch, DTP, NCI, 2025)

Test system: HOP-62 complex spheroids with HUVEC/MSC, viability
Experiment: Anticancer human tumor HOP-62 cell line growth inhibition [RAS];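 also: spheroids exposed to agents for seven days before readout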;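 as to viability, T/C: 100% = DMSO vehicle control viability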
Conditions: for IC50: curve of first compound; for viability, T/C: stronger effect = lower value
Procedure, shortened: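 Multi-cell-type spheroids: tumor cells plus HUVEC endothelial cells and mesenchymal stem cells. RAS-pathway inhibitors were combined with targeted agents, each dosed in half-log steps down from clinical Cmax, or from 10 microM when Cmax was unknown.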

[1] = second compound 0.000949 µM, first compound 0.0316 µM
[2] = second compound 0.000949 µM, first compound 0.1 µM
[3] = second compound 0.000949 µM, first compound 0.316 µM
[4] = second compound 0.000949 µM, first compound 1 µM
[5] = second compound 0.003 µM, first compound 0.0316 µM
[6] = second compound 0.003 µM, first compound 0.1 µM
[7] = second compound 0.003 µM, first compound 0.316 µM
[8] = second compound 0.003 µM, first compound 1 µM
[9] = second compound 0.00949 µM, first compound 0.0316 µM
[10] = second compound 0.00949 µM, first compound 0.1 µM
[11] = second compound 0.00949 µM, first compound 0.316 µM
[12] = second compound 0.00949 µM, first compound 1 µM
[13] = second compound 0.03 µM, first compound 0.0316 µM
[14] = second compound 0.03 µM, first compound 0.1 µM
[15] = second compound 0.03 µM, first compound 0.316 µM
[16] = second compound 0.03 µM, first compound 1 µM
[17] = second compound 0.0949 µM, first compound 0.0316 µM
[18] = second compound 0.0949 µM, first compound 0.1 µM
[19] = second compound 0.0949 µM, first compound 0.316 µM
[20] = second compound 0.0949 µM, first compound 1 µM
[21] = second compound 0.3 µM, first compound 0.0316 µM
[22] = second compound 0.3 µM, first compound 0.1 µM
[23] = second compound 0.3 µM, first compound 0.316 µM
[24] = second compound 0.3 µM, first compound 1 µM

Compound CC1(C)CCC(Nc2ncc(C(F)(F)F)c(-c3c[nH]c4c(P(C)(C)=O)c(C#N)ccc34)n2)CN1 (stereo not drawn) + C=CC(=O)N1CCN(c2nc(OCC3CCCN3C)nc3c(F)c(-c4nc(N)cc(C)c4C(F)(F)F)c(Cl)cc23)C(C)C1 has an IC50 (second compound 0.00316 µM) of under 0.949 nM, an IC50 (second compound 0.01 µM) of 0.977 nM and an IC50 (second compound 0.0316 µM) of under 0.949 nM. The IC50 (second compound 0.1 µM) was under 0.949 nM, the IC50 (second compound 0.316 µM) was under 0.949 nM and the IC50 (second compound 1 µM) was 0.959 nM. The viability, T/C (second compound 0.00316 µM, first compound 0.000949 µM) was 49.6%, the viability, T/C (second compound 0.00316 µM, first compound 0.003 µM) was 25% and the viability, T/C (second compound 0.00316 µM, first compound 0.00949 µM) was 19.8%. For the same compound, the viability, T/C (second compound 0.00316 µM, first compound 0.03 µM) was 15.8%, the viability, T/C (second compound 0.00316 µM, first compound 0.0949 µM) was 20.4% and the viability, T/C (second compound 0.00316 µM, first compound 0.3 µM) was 21.5%. The viability, T/C (second compound 0.01 µM, first compound 0.000949 µM) was 50.7%, the viability, T/C (second compound 0.01 µM, first compound 0.003 µM) was 24% and the viability, T/C (second compound 0.01 µM, first compound 0.00949 µM) was 20.3%. For the same compound, the viability, T/C (second compound 0.01 µM, first compound 0.03 µM) was 16.4%, the viability, T/C (second compound 0.01 µM, first compound 0.0949 µM) was 20% and the viability, T/C (second compound 0.01 µM, first compound 0.3 µM) was 19.8%. The viability, T/C (second compound 0.0316 µM, first compound 0.000949 µM) was 45.2%, the viability, T/C (second compound 0.0316 µM, first compound 0.003 µM) was 23.8% and the viability, T/C (second compound 0.0316 µM, first compound 0.00949 µM) was 19.6%. The viability, T/C (second compound 0.0316 µM, first compound 0.03 µM) was 15.4%, the viability, T/C (second compound 0.0316 µM, first compound 0.0949 µM) was 20.8% and the viability, T/C (second compound 0.0316 µM, first compound 0.3 µM) was 22.5%. It also gave a viability, T/C (second compound 0.1 µM, first compound 0.000949 µM) of 45.1%, a viability, T/C (second compound 0.1 µM, first compound 0.003 µM) of 22.6% and a viability, T/C (second compound 0.1 µM, first compound 0.00949 µM) of 21.2%. It also gave a viability, T/C (second compound 0.1 µM, first compound 0.03 µM) of 17.5%, a viability, T/C (second compound 0.1 µM, first compound 0.0949 µM) of 16% and a viability, T/C (second compound 0.1 µM, first compound 0.3 µM) of 20%. The viability, T/C (second compound 0.316 µM, first compound 0.000949 µM) was 48.8%, the viability, T/C (second compound 0.316 µM, first compound 0.003 µM) was 25.8% and the viability, T/C (second compound 0.316 µM, first compound 0.00949 µM) was 19.7%. It also gave a viability, T/C (second compound 0.316 µM, first compound 0.03 µM) of 16.8%, a viability, T/C (second compound 0.316 µM, first compound 0.0949 µM) of 21.2% and a viability, T/C (second compound 0.316 µM, first compound 0.3 µM) of 22.7%. The viability, T/C (second compound 1 µM, first compound 0.000949 µM) was 50.3%, the viability, T/C (second compound 1 µM, first compound 0.003 µM) was 20.7% and the viability, T/C (second compound 1 µM, first compound 0.00949 µM) was 18.4%. It also gave a viability, T/C (second compound 1 µM, first compound 0.03 µM) of 19.6%, a viability, T/C (second compound 1 µM, first compound 0.0949 µM) of 17.6% and a viability, T/C (second compound 1 µM, first compound 0.3 µM) of 19.1%.

Work on C=CC(=O)Nc1cc(Nc2nccc(-c3cn(C)c4ccccc34)n2)c(OC)cc1N(C)CCN(C)C + CCn1c(-c2cc(N3CCN(C)CC3)cnc2C(C)OC)c2c3cc(ccc31)-c1csc(n1)CC(NC(=O)C1CC1C)C(=O)N1CCCC(N1)C(=O)OCC(C)(C)C2 yielded an IC50 (second compound 0.000949 µM) of over 1000 nM, an IC50 (second compound 0.003 µM) of 688 nM and an IC50 (second compound 0.00949 µM) of 278 nM. For the same compound, the IC50 (second compound 0.03 µM) was 6.38 nM, the IC50 (second compound 0.0949 µM) was under 3.16 nM and the IC50 (second compound 0.3 µM) was under 3.16 nM. The viability, T/C (second compound 0.000949 µM, first compound 0.00316 µM) was 119%, the viability, T/C (second compound 0.000949 µM, first compound 0.01 µM) was 114% and the viability, T/C [1] was 85.8%. The viability, T/C [2] was 120%, the viability, T/C [3] was 106% and the viability, T/C [4] was 66.4%. For the same compound, the viability, T/C (second compound 0.003 µM, first compound 0.00316 µM) was 97.4%, the viability, T/C (second compound 0.003 µM, first compound 0.01 µM) was 88.6% and the viability, T/C [5] was 74.4%. The viability, T/C [6] was 89.5%, the viability, T/C [7] was 75.9% and the viability, T/C [8] was 37.4%. For the same compound, the viability, T/C (second compound 0.00949 µM, first compound 0.00316 µM) was 76.6%, the viability, T/C (second compound 0.00949 µM, first compound 0.01 µM) was 62.5% and the viability, T/C [9] was 59.7%. The viability, T/C [10] was 66.5%, the viability, T/C [11] was 47.3% and the viability, T/C [12] was 33.2%. It also gave a viability, T/C (second compound 0.03 µM, first compound 0.00316 µM) of 52%, a viability, T/C (second compound 0.03 µM, first compound 0.01 µM) of 49.2% and a viability, T/C [13] of 42.7%. The viability, T/C [14] was 43.3%, the viability, T/C [15] was 26.6% and the viability, T/C [16] was 30.1%. It also gave a viability, T/C (second compound 0.0949 µM, first compound 0.00316 µM) of 40.2%, a viability, T/C (second compound 0.0949 µM, first compound 0.01 µM) of 44.1% and a viability, T/C [17] of 33.8%. It also gave a viability, T/C [18] of 32.1%, a viability, T/C [19] of 26.4% and a viability, T/C [20] of 24%. The viability, T/C (second compound 0.3 µM, first compound 0.00316 µM) was 42.1%, the viability, T/C (second compound 0.3 µM, first compound 0.01 µM) was 35.6% and the viability, T/C [21] was 37.4%. It also gave a viability, T/C [22] of 33.7%, a viability, T/C [23] of 22.9% and a viability, T/C [24] of 22.7%.

NC1c2ccccc2OC12CCN(c1cnc3c(N4CCCc5ncccc54)n[nH]c3n1)CC2 (stereo not drawn) + CCn1c(-c2cc(N3CCN(C)CC3)cnc2C(C)OC)c2c3cc(ccc31)-c1csc(n1)CC(NC(=O)C1CC1C)C(=O)N1CCCC(N1)C(=O)OCC(C)(C)C2 was tested, and the IC50 (second compound 0.000949 µM) was 180 nM, the IC50 (second compound 0.003 µM) was 72 nM and the IC50 (second compound 0.00949 µM) was under 31.6 nM. It also gave an IC50 (second compound 0.03 µM) of under 31.6 nM, an IC50 (second compound 0.0949 µM) of under 31.6 nM and an IC50 (second compound 0.3 µM) of under 31.6 nM. The viability, T/C [1] was 87.9%, the viability, T/C [2] was 65.9% and the viability, T/C [3] was 33.9%. The viability, T/C [4] was 28.5%, the viability, T/C (second compound 0.000949 µM, first compound 3.16 µM) was 28.1% and the viability, T/C (second compound 0.000949 µM, first compound 10 µM) was 17.6%. For the same compound, the viability, T/C [5] was 72.5%, the viability, T/C [6] was 40.5% and the viability, T/C [7] was 25.3%. For the same compound, the viability, T/C [8] was 25%, the viability, T/C (second compound 0.003 µM, first compound 3.16 µM) was 17.7% and the viability, T/C (second compound 0.003 µM, first compound 10 µM) was 14%. For the same compound, the viability, T/C [9] was 47.4%, the viability, T/C [10] was 29.3% and the viability, T/C [11] was 25%. The viability, T/C [12] was 17.9%, the viability, T/C (second compound 0.00949 µM, first compound 3.16 µM) was 16.5% and the viability, T/C (second compound 0.00949 µM, first compound 10 µM) was 13.3%. It also gave a viability, T/C [13] of 42.9%, a viability, T/C [14] of 28.7% and a viability, T/C [15] of 22.4%. It also gave a viability, T/C [16] of 16.7%, a viability, T/C (second compound 0.03 µM, first compound 3.16 µM) of 11.3% and a viability, T/C (second compound 0.03 µM, first compound 10 µM) of 13.6%. It also gave a viability, T/C [17] of 30.5%, a viability, T/C [18] of 24.8% and a viability, T/C [19] of 18.6%. It also gave a viability, T/C [20] of 17.5%, a viability, T/C (second compound 0.0949 µM, first compound 3.16 µM) of 11.2% and a viability, T/C (second compound 0.0949 µM, first compound 10 µM) of 12.8%. It also gave a viability, T/C [21] of 31.9%, a viability, T/C [22] of 23.6% and a viability, T/C [23] of 18.4%. For the same compound, the viability, T/C [24] was 15.6%, the viability, T/C (second compound 0.3 µM, first compound 3.16 µM) was 12.5% and the viability, T/C (second compound 0.3 µM, first compound 10 µM) was 14.3%.

With CC1(O)CCCC1n1c(=O)c(C(F)F)cc2cnc(NC3CCN(S(C)(=O)=O)CC3)nc21 (stereo not drawn) the viability, T/C (compound 0.0316 µM) was 100% [middle of 4 runs] and the viability, T/C (compound 10 µM) was 4.01% [middle of 4 runs].
